Reference: US20220133884A1, “COMPOUNDS USEFUL AS ADJUVANTS” (MILLENNIUM PHARMACEUTICALS, INC., priority 2019, published 2022)

B1: OVA: chicken ovalbumin protein antigen, EndoFit Ovalbumin, InvivoGen (protein, UniProt P01012 2-386, looked up)
Ovalbumin: GSIGAASMEFCFDVFKELKVHHANENIFYCPIAIMSALAMVYLGAKDSTRTQINKVVRFDKLPGFGDSIEAQCGTSVNVHSSLRDILNQITKPNDVYSFSLASRLYAEERYPILPEYLQCVKELYRGGLEPINFQTAADQARELINSWVESQTNGIIRNVLQPSSVDSQTAMVLVNAIVFKGLWEKAFKDEDTQAMPFRVTEQESKPVQMMYQIGLFRVASMASEKMKILELPFASGTMSMLVLLPDEVSGLEQLESIINFEKLTEWTSSNVMEERKIKVYLPRMKMEEKYNLTSVLMAMGITDVFSSSANLSGISSAESLKISQAVHAAHAEINEAGREVVGSAEAGVDAASVSEEFRADHPFLFCIKHIATNAVLFFGRCVSP

Key:
[1] = system: dendritic cells (CD11c+ cells); assay: Study 1: activation of dendritic cells in lymph nodes after subcutaneous injection (flow cytometry); type: in vivo, Balb/c mice; conditions: ~18 hours post subcutaneous injection near brachial LNs, relative to vehicle treated mice
Method: (§1) Unless otherwise stated, immune cell profiling was performed using flow cytometry on a BD (Beckton Dickinson) LSRII Fortessa.
(§2) The goal of this study was to investigate the in vivo effects of Compound I-263a alone or in combination with a TLR9 agonist (CpG) with respect to the recruitment and activation of innate immune cells at regional draining lymph nodes (LNs). On day 0 in the evening, eight to ten week old female Balb/c mice (Jackson Labs, Bar Harbor, Me.) were injected subcutaneously bilaterally close to the two brachial LNs (50 μL each side) with one of the formulations shown in Table 1 (n=5 mice per group). On day 1 (˜18 hours post injection) the mice were euthanized. The inflamed brachial LNs as well as the distal non-inflamed inguinal LNs were harvested from each mouse individually. Single cell suspensions were generated by homogenizing the LNs on a 70μ cell strainer using 3 mL syringe plungers, followed by wash with FACS staining buffer (BD Biosciences, Cat #554657). The cell pellet was re-suspended in 100 μL of FACS buffer for staining on a 96-well U-bottom tissue culture plate (Corning). Each sample was stained using the flow cytometry panel (see Table 2 below) of antibodies followed by acquisition and analysis on BD LSRII Fortessa. For positive controls, 1 drop of ultracomp beads (Invitrogen, Cat #01-2222-42) were stained with 1 μL of the respective antibodies.

T cells and NK cells = assay: Study 1: early lymphocyte activation marker CD69 on T cells and NK cells in lymph nodes (flow cytometry); type: in vivo, Balb/c mice; conditions: ~18 hours post subcutaneous injection, Compound I-263a 7.5 mg/kg, CpG 2.5 mg/kg
Method: as §1, §2

B16F10-OVA tumors = assay: Study 3: prophylactic vaccination and B16F10-OVA tumor challenge; type: in vivo, C57BL/6 mice; conditions: SC pre-treatment Day -14 to Day -4, tumor challenge Day 0; Ovalbumin 100 ug QWx2, Compound I-263a 15 mg/kg BIWx2, poly (I:C) 50 ug BIWx2; FIG. 5A/5B
Method: The goal of this study was to evaluate the prophylactic effects of OVA+Compound 1-263a vaccination in mice challenged with tumors expressing the OVA antigen (B16F10-OVA). The B16F10-OVA cell line was generated in-house by stable integration of the chicken ovalbumin gene into the Rosa26 locus. Eight to ten-week-old female C57BL/6 mice (Jackson Labs, Bar Harbor, Me.) were injected with one of the formulations shown in Table 5 subcutaneously (SC) near the nape. All mice were subsequently challenged on Day 0 with 0.3e6 B16F10-OVA tumor cells/mouse subcutaneously (n=16 mice/group, except group 5 (ovalbumin+Compound 1-263a) for which n=15). Tumor growth was measured every 2-3 days using digital calipers and tumor volume was calculated as: L×W×(W/2).

Row | Molecule | expression of marker CD86 on CD11c+ cells in the distal inguinal LNs ([1]; 7.5 mg/kg, FIG. 1b) | expression of marker CD40 on CD11c+ cells in the brachial LNs ([1]; Compound I-263a 7.5 mg/kg, CpG 2.5 mg/kg, FIG. 1a) | expression of marker CD86 on CD11c+ cells in the brachial LNs ([1]; Compound I-263a 7.5 mg/kg, CpG 2.5 mg/kg, FIG. 1b) | early lymphocyte activation marker CD69 on T cells in the brachial LNs (T cells and NK cells; FIG. 2a) | early lymphocyte activation marker CD69 on NK cells in the brachial LNs (T cells and NK cells; FIG. 2b) | growth of B16-F10 tumors expressing OVA (tumor protection) (B16F10-OVA tumors)
1 | Cc1sc(C(=O)c2cncnc2N[C@@H]2C[C@H](COS(N)(=O)=O)[C@@H](O)C2)cc1[C@@H]1NCCc2ccc(Cl)cc21 [Compound I-263a, [(1R,2S,4R)-4-{[5-({4-[(1R)-7-chloro-1,2,3,4-tetrahydroisoquinolin-1-yl]-5-methyl-2-thienyl}carbonyl)pyrimidin-4-yl]amino}-2-hydroxycyclopentyl]methyl sulfamate] | but not in the distal inguinal LNs | increases | increases | changes in the early lymphocyte activation marker CD69 were observed | changes in the early lymphocyte activation marker CD69 were observed | did not confer tumor protection
2 | B1 | – | – | – | – | – | did not confer tumor protection
